According to article doi:10.1101/2023.05.15.540887, “Comparative analysis of drug-like EP300/CREBBP acetyltransferase inhibitors” (bioRxiv, 2023):

Legend:
[1] = system: histone H3 acetylation in MCF-10A cells (PANK4 KO+WT, KO+EV); experiment: Western blot of H3K18Ac and H3K23Ac in MCF-10A PANK4 KO+WT and KO+EV cells; assay type: cell-based, human; conditions: 3 h, 1 at micromolar and 3 at nanomolar concentrations
From the text: Recently, we reported the discovery of a phosphorylation-dependent signaling cascade that can upregulate CoA biosynthesis in human cells by inhibiting the activity of PANK4, a negative regulator of this pathway (Fig. 4a).[34] This occurs via PANK4’s ability to reverse the rate-limiting step in CoA production, which is phosphorylation of pantothenate (vitamin B5) by PANK1–3.[35] […] Considering how to resolve these mechanisms, we wondered if this may be an area where knowledge of the comparative pharmacology of EP300/CREBBP inhibitors could be usefully leveraged. Specifically, we hypothesized that if PANK4 inactivation (knockout; KO) led to a resistance mechanism dependent on EP300/CREBBP active site occupancy (e.g. competitive binding), then the differential potency of 1 and 3 would be preserved – albeit over a shifted concentration range – in the resistant PANK4 KO cell line (Fig. 4b). […] To correlate these observations with the effect of the compounds on cellular acetyltransferase activity, we monitored histone H3 acetylation at an EP300/CREBBP-dependent site (H3K18Ac) and EP300/CREBBP-independent site (H3K23Ac). […]
Histone samples were quantified using the Precision Red Protein Assay (Cytoskeleton #ADV02). […]

[2] = system: HCC-2998; experiment: NCI-60 growth inhibition (sulforhodamine B); assay type: cell-based, human; conditions: HCC-2998 (Colon Cancer), negative log of Molar conc., LCONC -8
[3] = system: SF-539; experiment: NCI-60 growth inhibition (sulforhodamine B); assay type: cell-based, human; conditions: SF-539 (CNS Cancer), negative log of Molar conc., LCONC -8
[4] = system: SK-MEL-5; experiment: NCI-60 growth inhibition (sulforhodamine B); assay type: cell-based, human; conditions: SK-MEL-5 (Melanoma), negative log of Molar conc., LCONC -8
[5] = system: UACC-257; experiment: NCI-60 growth inhibition (sulforhodamine B); assay type: cell-based, human; conditions: UACC-257 (Melanoma), negative log of Molar conc., LCONC -8
[6] = system: BT-549; experiment: NCI-60 growth inhibition (sulforhodamine B); assay type: cell-based; conditions: Homo sapiens, BT-549, Breast Cancer, negative log of Molar value, LCONC -8, EXPID 2301NS84
[7] = Homo sapiens, read-out: GI50 NLOGVALUE (converted)
[8] = Homo sapiens, read-out: IC50 NLOGVALUE (converted)
[9] = Homo sapiens, read-out: LC50 NLOGVALUE
[10] = Homo sapiens, read-out: IC50 NLOGVALUE

For `C[C@H](CN[C@@H](C(=O)Nc1ccc(-c2cnn(C)c2)cn1)c1ccccc1)c1ccc(C#N)cc1` [CPI-1612], the “effect on H3K18Ac, PANK4 KO+EV versus KO+WT” value [1] was “PANK4 KO lessening the effects”, the “TGI NLOGVALUE” [2] was 4 and the GI50 [2, 7] was 0.11 µM. For the same compound, the IC50 [2, 8] was 33.9 µM, the CC50 [2, 9] was greater than 100 µM and the GI50 [3, 7] was 2.09 µM. For the same compound, the IC50 [3, 10] was greater than 100 µM, the CC50 [3, 9] was greater than 100 µM and the “TGI NLOGVALUE” [3] was 4. For the same compound, the GI50 ([4]; Homo sapiens, read-out: GI50 NLOGVALUE) was less than 0.01 µM, the IC50 [4, 8] was 0.0263 µM and the CC50 [4, 9] was greater than 100 µM. For the same compound, the “TGI NLOGVALUE” [4] was 4.48, the IC50 [5, 10] was greater than 100 µM and the CC50 [5, 9] was greater than 100 µM. For the same compound, the “TGI NLOGVALUE” [5] was 4, the GI50 ([6]; read-out: GI50 NLOGVALUE) was greater than 100 µM and the IC50 ([6]; read-out: IC50 NLOGVALUE) was greater than 100 µM. For the same compound, the CC50 ([6]; read-out: LC50 NLOGVALUE) was greater than 100 µM.
